Calls of active or inactive are those of the source.
What was measured:
Hexokinase = Hexokinase (Trypanosoma brucei, UniProt Q38C41); experiment: Confirmation assay for inhibitors of Trypanosoma brucei hexokinase 1-Analogue-first series. [Related pubchem assays (depositor defined):AID1430, AID1632, AID2516, AID2560, AID2579, AID2600, AID449725, AID492951]; type: functional
[1] = target: G-protein coupled receptor 55 (Homo sapiens, UniProt Q9Y2T6); experiment: SAR analysis of selective Agonists of GPR55 using an Image-Based Assay - Set 2. [Related pubchem assays (depositor defined):AID1961, AID1965]; type: functional
G-protein coupled receptor 55, sequence (Q9Y2T6 whole entry): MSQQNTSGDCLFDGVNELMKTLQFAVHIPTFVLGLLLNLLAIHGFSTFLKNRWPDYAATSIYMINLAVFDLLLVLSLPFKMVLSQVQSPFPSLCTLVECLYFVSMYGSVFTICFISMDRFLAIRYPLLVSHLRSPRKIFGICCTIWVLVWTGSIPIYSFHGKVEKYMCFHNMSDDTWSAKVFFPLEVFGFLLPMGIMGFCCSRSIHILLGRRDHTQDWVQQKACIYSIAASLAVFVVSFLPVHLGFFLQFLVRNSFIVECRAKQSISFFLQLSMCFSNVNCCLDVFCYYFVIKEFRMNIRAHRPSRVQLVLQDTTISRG

Cannabinoid receptor 2 [2] = target: T1, Cannabinoid receptor 2 (Homo sapiens, UniProt P34972); experiment: SAR analysis of agonists of the Cannabinoid Receptor 2 using an Image-Based Assay - Set 2. [Related pubchem assays (depositor defined):AID1961, AID1965]; type: functional
T1 sequence (P34972 whole entry): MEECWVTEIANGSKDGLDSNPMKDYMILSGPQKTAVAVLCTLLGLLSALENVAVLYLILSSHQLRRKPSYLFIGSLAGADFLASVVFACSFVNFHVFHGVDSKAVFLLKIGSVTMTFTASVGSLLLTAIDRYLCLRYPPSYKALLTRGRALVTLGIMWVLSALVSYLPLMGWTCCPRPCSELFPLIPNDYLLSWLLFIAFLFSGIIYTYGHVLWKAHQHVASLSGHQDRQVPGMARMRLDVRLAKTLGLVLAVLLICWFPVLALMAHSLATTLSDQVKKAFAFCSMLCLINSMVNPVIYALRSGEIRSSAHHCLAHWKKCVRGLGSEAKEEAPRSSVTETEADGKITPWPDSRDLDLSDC

Cannabinoid receptor 2 [3] = target: T1, Cannabinoid receptor 2; experiment: SAR analysis of antagonists of the Cannabinoid Receptor 2 using an Image-Based Assay - Set 2. [Related pubchem assays (depositor defined):AID1961, AID1965]; type: functional
[4] = target: T2, G-protein coupled receptor 35 (Homo sapiens, UniProt Q9HC97); experiment: SAR analysis of Agonists of the GPR35 Receptor using an Image-Based Assay - Set 3. [Related pubchem assays (depositor defined):AID1961, AID1965]; type: functional
T2 sequence (Q9HC97 whole entry): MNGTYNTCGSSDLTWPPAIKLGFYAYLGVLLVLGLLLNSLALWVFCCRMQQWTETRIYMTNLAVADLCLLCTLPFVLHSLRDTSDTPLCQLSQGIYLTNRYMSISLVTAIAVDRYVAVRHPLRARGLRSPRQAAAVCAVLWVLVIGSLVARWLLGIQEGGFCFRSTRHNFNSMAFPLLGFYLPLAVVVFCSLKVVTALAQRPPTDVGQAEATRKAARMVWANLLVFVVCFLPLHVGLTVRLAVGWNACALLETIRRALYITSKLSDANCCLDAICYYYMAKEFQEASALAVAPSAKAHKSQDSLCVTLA

Cannabinoid receptor 1 [5] = target: T3, Cannabinoid receptor 1 (Homo sapiens, UniProt P21554); experiment: SAR analysis of antagonists of the Cannabinoid Receptor 1 using an Image-Based Assay - Set 3. [Related pubchem assays (depositor defined):AID1961, AID1965]; type: functional
T3 sequence (P21554 whole entry): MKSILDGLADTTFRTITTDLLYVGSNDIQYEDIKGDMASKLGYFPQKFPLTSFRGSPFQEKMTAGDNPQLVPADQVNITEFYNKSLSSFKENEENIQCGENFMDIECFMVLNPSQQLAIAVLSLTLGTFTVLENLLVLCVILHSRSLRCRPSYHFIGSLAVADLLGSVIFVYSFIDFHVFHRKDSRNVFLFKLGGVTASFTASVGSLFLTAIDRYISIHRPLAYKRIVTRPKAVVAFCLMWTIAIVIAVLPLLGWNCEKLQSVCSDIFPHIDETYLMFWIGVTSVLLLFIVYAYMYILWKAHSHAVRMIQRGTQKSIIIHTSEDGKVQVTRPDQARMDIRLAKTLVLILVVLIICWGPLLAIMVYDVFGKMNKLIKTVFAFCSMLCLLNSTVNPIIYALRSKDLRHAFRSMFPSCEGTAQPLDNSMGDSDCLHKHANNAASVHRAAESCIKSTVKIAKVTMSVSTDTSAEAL

[6] = target: T2, G-protein coupled receptor 35; experiment: SAR analysis of Antagonists of the GPR35 Receptor using an Image-Based Assay - Set 4. [Related pubchem assays (depositor defined):[…]]; type: functional
Cannabinoid receptor 1 [7] = target: T3, Cannabinoid receptor 1; experiment: SAR analysis of agonists of the Cannabinoid Receptor 1 using an Image-Based Assay - Set 3. [Related pubchem assays (depositor defined):AID1961, AID1965]; type: functional
[8] = target: DNA damage-inducible transcript 3 protein (Mus musculus, UniProt P35639); type: functional, Cricetulus griseus
DNA damage-inducible transcript 3 protein, sequence (P35639 whole entry): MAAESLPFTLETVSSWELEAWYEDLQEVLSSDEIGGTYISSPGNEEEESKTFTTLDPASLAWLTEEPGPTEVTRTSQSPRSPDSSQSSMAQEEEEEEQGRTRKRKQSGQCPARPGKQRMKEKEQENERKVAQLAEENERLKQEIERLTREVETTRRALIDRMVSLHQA

X-box-binding protein 1 = X-box-binding protein 1 (Homo sapiens, UniProt P17861); type: functional, Cricetulus griseus;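 note: confirmatory dose-response counter-screen serving a CHOP assay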
X-box-binding protein 1, sequence (P17861 whole entry): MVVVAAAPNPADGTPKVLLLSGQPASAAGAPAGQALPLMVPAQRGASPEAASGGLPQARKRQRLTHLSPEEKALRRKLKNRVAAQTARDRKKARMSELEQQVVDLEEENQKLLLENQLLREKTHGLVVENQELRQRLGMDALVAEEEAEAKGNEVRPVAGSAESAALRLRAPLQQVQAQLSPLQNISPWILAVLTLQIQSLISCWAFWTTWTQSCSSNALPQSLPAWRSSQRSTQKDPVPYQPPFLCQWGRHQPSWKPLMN

[9] = Luminescence Cell-Based Dose Retest to Confirm Inhibitors of Cancer Stem Cells. [Related pubchem assays (depositor defined):AID2717, AID2721]; type: functional; conditions: Homo sapiens
Protein RecA = target: T4, Protein RecA (Mycobacterium tuberculosis, UniProt P9WHJ3); experiment: Fluorescence Cell-Free Homogeneous Dose Retest to Identify Inhibitors of RecA-Intein Splicing Activity. [Related pubchem assays (depositor defined):AID2097, AID2223, AID489010, AID492950]; type: functional
T4 sequence (P9WHJ3 whole entry): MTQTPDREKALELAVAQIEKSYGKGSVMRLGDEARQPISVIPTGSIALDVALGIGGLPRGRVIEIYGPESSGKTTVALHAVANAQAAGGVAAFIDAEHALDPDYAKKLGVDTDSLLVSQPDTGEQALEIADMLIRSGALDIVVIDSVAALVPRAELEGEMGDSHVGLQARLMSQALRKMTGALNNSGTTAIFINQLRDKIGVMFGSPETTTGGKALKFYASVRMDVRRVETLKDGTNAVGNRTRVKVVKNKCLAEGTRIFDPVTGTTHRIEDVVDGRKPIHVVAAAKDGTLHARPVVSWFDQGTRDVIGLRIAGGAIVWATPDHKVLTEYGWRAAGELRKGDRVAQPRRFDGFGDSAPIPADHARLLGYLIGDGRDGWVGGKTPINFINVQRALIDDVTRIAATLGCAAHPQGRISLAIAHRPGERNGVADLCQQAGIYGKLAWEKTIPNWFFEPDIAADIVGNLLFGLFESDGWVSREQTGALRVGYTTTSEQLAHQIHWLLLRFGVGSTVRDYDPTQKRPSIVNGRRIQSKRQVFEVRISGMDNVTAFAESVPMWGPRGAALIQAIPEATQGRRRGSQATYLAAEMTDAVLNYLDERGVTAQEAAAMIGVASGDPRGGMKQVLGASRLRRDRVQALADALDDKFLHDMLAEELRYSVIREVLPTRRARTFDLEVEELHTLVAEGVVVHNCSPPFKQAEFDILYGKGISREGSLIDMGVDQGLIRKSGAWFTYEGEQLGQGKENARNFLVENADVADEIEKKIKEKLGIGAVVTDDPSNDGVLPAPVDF

Aminopeptidase N = target: T5, Aminopeptidase N (Plasmodium falciparum FcB1/Columbia, UniProt O96935); experiment: malaria alanyl aminopeptidase activity blockers – biochemical, fluorogenic H-Leu-NHMec substrate, 1536-well (AID 1445); set-up: species or system Plasmodium falciparum 3D7, 3D7
T5 sequence (O96935 whole entry): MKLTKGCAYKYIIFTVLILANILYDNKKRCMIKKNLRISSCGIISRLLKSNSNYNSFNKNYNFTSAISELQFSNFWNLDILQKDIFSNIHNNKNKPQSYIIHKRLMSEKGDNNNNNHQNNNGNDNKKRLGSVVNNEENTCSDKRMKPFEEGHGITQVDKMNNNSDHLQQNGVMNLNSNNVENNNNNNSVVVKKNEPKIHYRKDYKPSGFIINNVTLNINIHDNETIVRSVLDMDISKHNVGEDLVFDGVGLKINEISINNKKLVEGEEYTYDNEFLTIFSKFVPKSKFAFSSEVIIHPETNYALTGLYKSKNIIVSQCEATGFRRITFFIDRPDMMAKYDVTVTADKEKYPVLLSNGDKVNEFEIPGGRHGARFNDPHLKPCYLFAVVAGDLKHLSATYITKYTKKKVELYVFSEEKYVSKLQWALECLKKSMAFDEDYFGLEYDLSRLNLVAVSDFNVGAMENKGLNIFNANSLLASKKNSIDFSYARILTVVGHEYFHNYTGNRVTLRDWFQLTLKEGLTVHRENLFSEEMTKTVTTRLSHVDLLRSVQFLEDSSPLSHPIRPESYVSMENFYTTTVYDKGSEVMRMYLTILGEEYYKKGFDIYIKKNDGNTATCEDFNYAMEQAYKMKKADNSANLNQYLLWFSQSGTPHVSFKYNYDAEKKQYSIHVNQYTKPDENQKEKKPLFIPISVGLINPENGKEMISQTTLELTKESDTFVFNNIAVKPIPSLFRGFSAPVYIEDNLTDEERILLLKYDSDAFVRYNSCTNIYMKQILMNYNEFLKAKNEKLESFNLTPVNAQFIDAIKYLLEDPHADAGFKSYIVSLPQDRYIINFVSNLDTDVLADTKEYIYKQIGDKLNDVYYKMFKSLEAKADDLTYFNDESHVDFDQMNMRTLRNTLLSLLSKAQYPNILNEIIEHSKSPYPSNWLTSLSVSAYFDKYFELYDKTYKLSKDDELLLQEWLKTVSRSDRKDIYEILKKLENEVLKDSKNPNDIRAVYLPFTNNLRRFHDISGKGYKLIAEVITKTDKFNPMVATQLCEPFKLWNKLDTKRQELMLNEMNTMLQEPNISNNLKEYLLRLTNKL

[10] = viability of HCT116 lacking mutant beta-catenin – cell-based, human colon tumor, dose response (AID 1045); type: functional;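 note: HCT116 colon tumor cells with beta catenin knocked out; cells exposed to compound for 60 hours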
[11] = Intein inhibitors as potential Tuberculosis drugs, a cytotoxicity screen. [Related pubchem assays (depositor defined):AID2221, AID2223, AID434968, AID435010, AID449749, AID449750, AID489010]; type: functional
[12] = viability of PTEN-deleted HCT116 cells – cell-based, HCT116 PTEN knockout, dose response (AID 1047); type: functional;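 note: HCT116 colon tumor cells with PTEN knocked out; cells exposed to compound for 60 hours before readout; potency for loss of cell viability measured by luminescence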
Bcl-2-like protein 10 = target: T6, Bcl-2-like protein 10 (Homo sapiens, UniProt Q9HD36); experiment: Bcl-B/TR3 peptide binding disruption – biochemical, fluorescence polarization, FITC-TR3 peptide, selectivity assay for Bfl-1 inhibitor project, primary screen (AID 748);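 note: fluorescence polarization from a fluorescein-labelled TR3 peptide binding purified Bcl-B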
T6 sequence (Q9HD36 whole entry): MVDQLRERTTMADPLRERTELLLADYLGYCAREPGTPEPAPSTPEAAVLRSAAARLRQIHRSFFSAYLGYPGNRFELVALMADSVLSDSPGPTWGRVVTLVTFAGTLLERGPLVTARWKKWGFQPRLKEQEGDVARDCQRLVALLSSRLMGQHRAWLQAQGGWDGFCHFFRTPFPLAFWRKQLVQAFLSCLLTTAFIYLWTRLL

[13] = target: T7, Replicative DNA helicase DnaB (Mycobacterium tuberculosis, UniProt P9WMR3); experiment: DnaB intein splicing inhibitors, dose response, biochemical, cell-free fluorescence (AID 449749); type: functional
T7 sequence (P9WMR3 whole entry): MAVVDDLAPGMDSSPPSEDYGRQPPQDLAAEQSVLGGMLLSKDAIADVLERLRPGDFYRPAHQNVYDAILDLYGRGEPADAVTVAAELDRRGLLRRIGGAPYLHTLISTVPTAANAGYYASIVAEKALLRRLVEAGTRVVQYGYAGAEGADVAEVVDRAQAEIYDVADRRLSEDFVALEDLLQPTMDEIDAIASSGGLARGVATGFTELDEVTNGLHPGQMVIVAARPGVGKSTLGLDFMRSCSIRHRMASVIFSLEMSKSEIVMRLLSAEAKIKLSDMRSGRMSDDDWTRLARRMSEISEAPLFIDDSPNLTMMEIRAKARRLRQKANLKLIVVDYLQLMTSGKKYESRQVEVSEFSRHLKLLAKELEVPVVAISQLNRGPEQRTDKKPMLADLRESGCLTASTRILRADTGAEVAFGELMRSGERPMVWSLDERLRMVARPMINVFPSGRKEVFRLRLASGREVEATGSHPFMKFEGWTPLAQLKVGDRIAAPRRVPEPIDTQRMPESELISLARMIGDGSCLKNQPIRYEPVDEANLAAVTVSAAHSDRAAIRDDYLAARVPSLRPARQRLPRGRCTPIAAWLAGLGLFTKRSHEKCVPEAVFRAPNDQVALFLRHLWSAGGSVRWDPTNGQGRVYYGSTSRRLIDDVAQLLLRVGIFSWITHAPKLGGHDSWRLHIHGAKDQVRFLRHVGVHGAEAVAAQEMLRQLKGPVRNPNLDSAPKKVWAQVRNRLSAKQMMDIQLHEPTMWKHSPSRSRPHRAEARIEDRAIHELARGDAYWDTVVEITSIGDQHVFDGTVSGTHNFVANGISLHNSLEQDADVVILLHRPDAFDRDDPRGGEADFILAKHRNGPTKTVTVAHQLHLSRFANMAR
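Throughout, for CC50: cells exposed to compound for 72 hours before luminescence readout.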

Hexokinase, sequence (Q38C41 whole entry): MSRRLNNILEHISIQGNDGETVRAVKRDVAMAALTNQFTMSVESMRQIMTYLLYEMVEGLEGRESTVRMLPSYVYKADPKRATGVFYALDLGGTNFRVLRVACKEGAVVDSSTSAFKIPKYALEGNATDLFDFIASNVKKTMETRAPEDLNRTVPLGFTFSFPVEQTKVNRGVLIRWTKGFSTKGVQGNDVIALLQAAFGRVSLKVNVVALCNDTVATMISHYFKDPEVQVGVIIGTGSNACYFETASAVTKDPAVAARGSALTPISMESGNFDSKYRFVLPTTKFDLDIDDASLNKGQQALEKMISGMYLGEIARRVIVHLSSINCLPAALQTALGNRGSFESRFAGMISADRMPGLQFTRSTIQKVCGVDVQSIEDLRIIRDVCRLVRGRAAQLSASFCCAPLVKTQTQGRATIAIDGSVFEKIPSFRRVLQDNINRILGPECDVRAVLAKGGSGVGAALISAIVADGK

## CCc1ccc(C(=O)Nc2cc(Br)ccc2C(=O)O)cc1
Hexokinase
  IC50: 5.45 µM (active)

## Cc1ccc2cc(C)c3nnc(SCC(=O)N(C)c4nc(-c5ccccc5)cs4)n3c2c1
[1]
  EC50: > 32 µM (inactive)
Cannabinoid receptor 2 [2]
  EC50: > 32 µM (inactive)
Cannabinoid receptor 2 [3]
  IC50: > 32 µM (inactive)
[4]
  EC50: > 32 µM (inactive)
Cannabinoid receptor 1 [5]
  IC50: 4.44 µM (active)
[6]
  IC50: > 32 µM (inactive)
Cannabinoid receptor 1 [7]
  EC50: > 32 µM (inactive)

## CCCc1ccc(O)c(/N=C/c2cc(Br)cc(OCC)c2O)c1
[8]
  Absolute IC50 (CHOP): 10 µM
X-box-binding protein 1
  Absolute IC50 (XBP1): 10 µM
[9]
  AC50: 9.69 µM (active)

## Cc1ccc(O)c(/N=C/C2=C(O)c3ccccc3C2=O)c1
Protein RecA
  EC50: 0.216 µM (active)
Aminopeptidase N
  IC50: 71.9 µM (active)
[10]
  EC50: 22.2 µM (active)
[11]
  CC50: > 40 µM (active)
[12]
  EC50: 32 µM (active)
Bcl-2-like protein 10
  IC50: 44.7 µM (active)
[13]
  AC50: 0.4 µM (active)

Source: ChEMBL document CHEMBL1201862, “PubChem BioAssay data set” (2004)
